This is an account of results in patent publication US20110028549A1, “USE OF A MONOTERPENE TO TREAT OR PREVENT STRESS” (AISA THERAPEUTICS, priority 2007, published 2011).

Data set [1] relates to female rats Wistar HsdBrlHan. The data set can be described thus: Functional Observation Battery (FOB) in rats after oral treatment. The data set is classed as in vivo, rat. Particulars: for aggression (summary) / audible vocalization (summary) / body temperature (summary) / escapes after finger approach (summary) / interest for an object, curiosity (summary) / irritability (summary) / mictions (summary) / number of squares crossed (summary) / pain response (summary) / spontaneous activity (summary) / startle response (summary) / time before the rat falls (summary) / toe pinch reflex (summary) / wire manoeuvre (summary): FOB 1, 2 or 3 hours later, in comparison with the control; for capacity to tolerate stress: rats submitted to several stressful conditions, compared to vehicle-treated animals. The method, then: 1, 2 or 3 hours later, a Functional Observation Battery (FOB) was carried out.
Eighteen female rats Wistar HsdBrlHan EOPS (Ganat, France) with an average weight of 175-200 g are used. The 18 rats are weighed, marked and shared in 3 groups of 6 (n=6):
“control” group=oral treatment with maize oil;
“Perillic alcohol 10” group=oral treatment with perillic alcohol at 10 mg/kg;
The observations are carried out 60 minutes before treatment and 60, 120 and 180 minutes after the administration orally of the assayed products and comprise three observation phases:
a first direct observation phase during which the animal is not disturbed;
an active observation phase during which the animal is manipulated;
a phase dedicated to the evaluation of the responses of the animals towards the reactivity assays.
The studied variables are the following:
behavioural effects: spontaneous locomotive activity, locomotive behaviour troubles, anxiety, touch response, irritability, aggression and freezing caused behaviours, somnolence, number of defecations, number of mictions, sensor-motor responses (toe pinch response and sound response);
neurological effects: pupillary reflex, palpebral closure, pelvic elevation, tail position, limb and abdominal tones, reversal test, grip test, tremors and piloerection;
physiological effects: salivation, lacrimation, diarrhea, body temperature, respiratory rhythm.
Considering the Gaussian distribution or not of the data, parametric (P) or non-parametric (NP) tests are used: ANOVA (P) or Kruskal-Wallis test (NP) followed possibly by the Dunnett test (P) or the Mann-Whitney test (NP) to compare the treated groups with the control group. Statistics are carried out with the Statview 5 software (SAS, Institute Inc., USA).

The subject of the next data set is isoprenylation enzymes. Particulars: cited from earlier work.
The conditions of data set [2]: 100 mg/kg limonene ingested in a custard, 4 h after ingestion, GC/MS; cited from earlier work.
For data set [3] the following is noted: cancer patients, doses which may have clinical activity; cited from earlier work.
Where [4] appears, read: 10 mg/kg orally, T+60 min, Mann-Whitney test.
Setting [5] is: 10 mg/kg orally, T+120 min, Mann-Whitney test.
Where [6] appears, read: 10 mg/kg orally, T+180 min, Mann-Whitney test.
Where [7] appears, read: 10 mg/kg orally, T+120 min, Mann-Whitney test vs. Control, n = 6.
Setting [8] is: 10 mg/kg orally, T+180 min, Mann-Whitney test vs. Control, n = 6.

For the molecule `C=C(C)[C@H]1CC=C(C)CC1` [Limonene, (4R)-1-methyl-4-isopropenylcyclohex-1-ene], in data set [1] (10 mg/kg orally), the “duration of the effect” value was “at least 3 hours”; the “overall effect indicated by the FOB results” value is “an appeasing, relaxing effect, an anti-pain effect and an effect on temper giving a cheerful character”; the “time to response (onset)” value is given as “less than one hour”; the “aggression (summary)” value is recorded as “no aggression”. Moreover, in data set [1] (10 mg/kg orally), the “audible vocalization (summary)” value is reported as “very poor”; the “body temperature (summary)” value was “a decrease”; the “escapes after finger approach (summary)” value is listed as “less quickly escapes”; the “interest for an object, curiosity (summary)” value is “an increase”. Moreover, in data set [1] (10 mg/kg orally), the “irritability (summary)” value is recorded as “no irritability”, the “mictions (summary)” value is “an increase”, the “number of squares crossed (summary)” value is recorded as “an increase” and the “pain response (summary)” value is “a high decrease”. For the same molecule, in data set [1] (10 mg/kg orally), the “spontaneous activity (summary)” value is recorded as “an increase”, the “startle response (summary)” value is given as “an important decrease”, the “time before the rat falls (summary)” value is on record as “an increase” and the “toe pinch reflex (summary)” value was “a decrease”. Moreover, the “wire manoeuvre (summary)” value in data set [1] (10 mg/kg orally) was “an increase”. In addition, in data set [1] (setting [4]), the “Audible vocalization vs control group” value is “significantly less vocalization”, the “Interest for an object vs control group” value was “significantly more important”, the “Irritability vs control group” value is “significantly less irritable” and the “Toe pinch reflex vs control group” value was “significantly less reactive”. Besides, in data set [1] (setting [5]), the “Audible vocalization vs control group” value is listed as “significantly less vocalization”; the “Finger approach, escapes vs control group” value is recorded as “significantly less escapes”; the “Interest for an object vs control group” value is recorded as “significantly more important”; the “Irritability vs control group” value was “significantly less irritable”. In addition, in data set [1] (setting [5]), the “Startles vs control group” value is given as “significantly less startles”. In data set [1] (setting [6]), the “Audible vocalization vs control group” value was “significantly less vocalization”, the “Body temperature vs control group” value is given as “significantly lower”, the “Interest for an object vs control group” value is “significantly higher” and the “Number of squares crossed vs control group” value is on record as “significantly more squares”. In data set [1] (setting [6]), the “Startles vs control group” value is given as “significantly less startles” and the “Wire manoeuvre vs control group” value was “significantly more often”. In addition, in data set [1], the “capacity to tolerate stress” value is “an important effect leading to the capacity to tolerate stress”. In addition, the “inhibition of the isoprenylation enzymes” value with isoprenylation enzymes is “only weak inhibitors”. Moreover, in data set [2], the “compounds (plasma metabolites) present in blood” value is listed as “at least five compounds”; the “identity of the two major plasma metabolite peaks” value was “dihydroperillic acid and perillic acid”. Besides, the tolerability entry in data set [3] is “well tolerated”.
As for `C=C(C)[C@@H]1CC=C(CO)CC1` [Perillic alcohol, (S)-4-Isopropenyl-1-cyclohexenylmethanol], in data set [1] (10 mg/kg orally), the “duration of the effect” value was “already decreased after 2 hours”; the “overall effect indicated by the FOB results” value is “an appeasing, relaxing effect, an anti-pain effect and an effect on temper giving a cheerful character”; the “time to response (onset)” value is given as “less than one hour”; the “aggression (summary)” value is recorded as “no aggression”. In data set [1] (10 mg/kg orally), the “audible vocalization (summary)” value was “very poor”; the “body temperature (summary)” value is “a decrease”; the “escapes after finger approach (summary)” value is given as “less quickly escapes”; the “interest for an object, curiosity (summary)” value was “an increase”. In data set [1] (10 mg/kg orally), the “irritability (summary)” value is given as “no irritability”, the “mictions (summary)” value is “an increase”, the “number of squares crossed (summary)” value is given as “an increase” and the “pain response (summary)” value is listed as “a high decrease”. In data set [1] (10 mg/kg orally), the “spontaneous activity (summary)” value is “an increase”, the “startle response (summary)” value is “an important decrease”, the “time before the rat falls (summary)” value is recorded as “an increase” and the “toe pinch reflex (summary)” value was “a decrease”. Also, in data set [1] (10 mg/kg orally), the “wire manoeuvre (summary)” value is listed as “an increase”. Moreover, in data set [1] (setting [4]), the “Audible vocalization vs control group” value is given as “tendancy to emit less vocalization”, the “Interest for an object vs control group” value is on record as “tendency to have a more important interest”, the “Irritability vs control group” value is given as “significantly less irritable” and the “Toe pinch reflex vs control group” value was “significantly less reactive”. For the same molecule, the “Finger approach, escapes vs control group” value in data set [1] (setting [5]) is recorded as “significantly less escapes”. Also, in data set [1] (setting [7]), the Audible vocalization result was “N.S”, the “Interest for an object” value is recorded as “N.S”, the Irritability result is recorded as “N.S” and the Startles entry is given as “N.S”. For the same molecule, the “Audible vocalization vs control group” value in data set [1] (setting [6]) is reported as “tendency to emit less vocalization”. Also, in data set [1] (setting [8]), the Body temperature result was “N.S”, the “Interest for an object” value is listed as “N.S”, the “Number of squares crossed” value is “N.S” and the Startles entry is listed as “N.S”. In addition, the Wire manoeuver result in data set [1] (setting [8]) is on record as “N.S”. In data set [1], the “capacity to tolerate stress” value is listed as “an important effect leading to the capacity to tolerate stress”. Further, on isoprenylation enzymes, the “IC50 on isoprenylation enzymes” value was “low mM range” and the “inhibition of the isoprenylation enzymes” value is listed as “more potent inhibitors”.
Turning to `C=C(C)[C@@H]1CC=C(C(=O)O)CC1` [perillic acid], on isoprenylation enzymes, the “IC50 on isoprenylation enzymes” value is given as “low mM range” and the “inhibition of the isoprenylation enzymes” value is “more potent inhibitors”.
As for S-limonene, the “inhibition of the isoprenylation enzymes” value in the data set with isoprenylation enzymes is “only weak inhibitors”.
